From US8435978B2, “Substituted sulfonamide compounds” (Gruenenthal GmbH, priority 2006, dated 2013)
Where a name gives a salt, the structure may show the parent alone.

Columns and labels:
human B1R receptor = target: T1, human B1R receptor (Homo sapiens, UniProt P46663); assay: Functional study on the bradykinin receptor 1 (B1R), FLIPR Ca2+ assay, hB1R cells; assay type: cell-based; conditions: agonist Lys-Des-Arg9-bradykinin 0.5 nM, % inhibition compared with the maximum achievable inhibition; for inhibition at 10 µM: CHO-K1, test substance 10 μM, read-out: B1R Antagonism, human [10 μM] % Inhibition; for B1R Antagonism, human [10 μM] % Inhibition: test substance 10 μM, hB1R CHO K1 cells
T1 construct: host or cells: CHO K1 cells (Chinese hamster ovary), stably transfected
T1 sequence (P46663 1-353): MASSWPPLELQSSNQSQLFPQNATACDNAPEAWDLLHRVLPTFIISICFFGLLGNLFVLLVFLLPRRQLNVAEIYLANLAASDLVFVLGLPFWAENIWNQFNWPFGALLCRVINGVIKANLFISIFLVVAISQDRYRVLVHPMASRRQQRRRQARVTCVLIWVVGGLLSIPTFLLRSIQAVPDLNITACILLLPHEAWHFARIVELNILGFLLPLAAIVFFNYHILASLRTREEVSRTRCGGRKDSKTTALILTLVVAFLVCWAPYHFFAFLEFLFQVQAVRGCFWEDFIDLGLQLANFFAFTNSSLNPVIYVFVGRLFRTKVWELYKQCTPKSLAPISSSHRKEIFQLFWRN
Summary of the method: (§1)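 FLIPR Ca2+ assay in recombinant CHO K1 cells (human or rat B1R), Fluo-4 dye; 10 μM compound, 10 min, then EC-level agonist per species (0.5 nM Lys-Des-Arg9-BK human / 100 nM Des-Arg9-BK rat). Output: % inhibition vs maximum.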

B1R receptor of the rat = target: T2, B1R receptor of the rat (Rattus norvegicus, UniProt P97583); assay: Functional study on the bradykinin receptor 1 (B1R), FLIPR Ca2+ assay, rB1R cells; assay type: cell-based; conditions: agonist Des-Arg9-bradykinin 100 nM, % inhibition compared with the maximum achievable inhibition; for inhibition at 10 µM: CHO-K1, test substance 10 μM, read-out: B1R Antagonism, rat [10 μM] % Inhibition; for B1R Antagonism, rat [10 μM] % Inhibition: test substance 10 μM, rB1R CHO K1 cells
T2 construct: host or cells: CHO K1 cells (Chinese hamster ovary), stably transfected
T2 sequence (P97583 1-337): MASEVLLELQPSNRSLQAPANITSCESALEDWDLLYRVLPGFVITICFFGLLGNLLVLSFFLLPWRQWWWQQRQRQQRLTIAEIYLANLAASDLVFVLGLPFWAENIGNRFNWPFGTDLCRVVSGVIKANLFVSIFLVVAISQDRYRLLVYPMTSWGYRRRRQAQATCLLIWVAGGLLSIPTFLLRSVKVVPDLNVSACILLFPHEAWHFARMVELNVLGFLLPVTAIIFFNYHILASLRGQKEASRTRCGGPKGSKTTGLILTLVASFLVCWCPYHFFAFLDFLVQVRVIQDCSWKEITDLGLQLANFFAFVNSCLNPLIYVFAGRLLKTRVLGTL
Summary of the method: as §1

Compound | inhibition at 10 µM (human B1R receptor) [%] | inhibition at 10 µM (B1R receptor of the rat) [%] | B1R Antagonism, human [10 μM] % Inhibition (human B1R receptor) [%] | B1R Antagonism, rat [10 μM] % Inhibition (B1R receptor of the rat) [%]
COc1cc(C)c(S(=O)(=O)N2CCCCC2COCC(=O)N2CCC(N3CCC(F)CC3)CC2)c(C)c1 (stereo not shown) [Example 130, 1-(4-fluoro-1,4′-bipiperidin-1′-yl)-2-((1-(4-methoxy-2,6-dimethylphenylsulfonyl)piperidin-2-yl)methoxy)ethanone] | 103 | 96.3 | – | –
COc1cc(C)c(S(=O)(=O)N2CCCC2COCC(=O)N2CCN(C3CCN(C)CC3)CC2)c(C)c1 (stereo not shown) [Example 192, 2-((1-(4-methoxy-2,6-dimethylphenylsulfonyl)pyrrolidin-2-yl)methoxy)-1-(4-(1-methylpiperidin-4-yl)piperazin-1-yl)ethanone] | 106 | 100 | – | –
Cc1cc(C)c(S(=O)(=O)N2CCCCC2COCC(=O)N2CCC(N3CCCC3)CC2)c(C)c1 (stereo not shown) [Example 19, 2-((1-(mesitylsulfonyl)piperidin-2-yl)methoxy)-1-(4-(pyrrolidin-1-yl)piperidin-1-yl)-ethanone] | 95 | 98.9 | – | –
Cc1cc(C)c(S(=O)(=O)N2Cc3ccccc3CC2COCC(=O)NCc2ccccc2N2CCN(C)CC2)c(C)c1 (stereo not shown) [Example 75, N-[2-(4-methyl-piperazin-1-yl)-benzyl]-2-[2-(2,4,6-trimethyl-phenylsulfonyl)-1,2,3,4-tetrahydro-isoquinolin-3-ylmethoxy]-acetamide] | 50.1 | 9.11 | – | –
O=C(COCC1CCCCN1S(=O)(=O)c1cccc2ccccc12)NCc1ccc(CN2CCOCC2)cc1 (stereo not shown) [Example 61, N-(4-morpholin-4-ylmethyl-benzyl)-2-[1-(naphthyl-1-sulfonyl)-piperidin-2-ylmethoxy]-acetamide] | – | – | 59.7 | 30.54
COc1cc(C)c(S(=O)(=O)N2CCCC[C@H]2COCC(=O)N2CCN(C3CCN(C)CC3)CC2)c(C)c1 [Example 167, (S)-2-((1-(4-methoxy-2,6-dimethylphenylsulfonyl)piperidin-2-yl)methoxy)-1-(4-(1-methylpiperidin-4-yl)piperazin-1-yl)ethanone] | 102 | 101 | – | –
CN1CCN(c2ccc(CNC(=O)COCC3CCCCN3S(=O)(=O)c3c(Cl)cc(Cl)cc3Cl)cc2)CC1 (stereo not shown) [Example 13, N-[4-(4-methyl-piperazin-1-yl)-benzyl]-2-[1-(2,4,6-trichloro-phenylsulfonyl)-piperidin-2-ylmethoxy]-acetamide] | 97.7 | 113 | – | –
COc1cc(C)c(S(=O)(=O)N2CCCCC2COCC(=O)N(C)C(CN2CCCC2)c2ccccc2)c(C)c1 (stereo not shown) [Example 241, 2-((1-(4-methoxy-2,6-dimethylphenylsulfonyl)piperidin-2-yl)methoxy)-N-methyl-N-(1-phenyl-2-(pyrrolidin-1-yl)ethyl)acetamide] | 104 | 99.3 | – | –
O=C(COCC1CCCCN1S(=O)(=O)c1ccc(Cl)c(Cl)c1)N1CCOC(CN2CCCCC2)C1 (stereo not shown) [Example 266, 2-((1-(3,4-dichlorophenylsulfonyl)piperidin-2-yl)methoxy)-1-(2-(piperidin-1-ylmethyl)morpholino)ethanone] | 102 | 2.12 | – | –
COc1cc(C)c(S(=O)(=O)N2CCCCC2COCC(=O)N2CCC(C(=O)N3CCN(C)CC3)CC2)c(C)c1 (stereo not shown) [Example 146, 2-((1-(4-methoxy-2,6-dimethylphenylsulfonyl)piperidin-2-yl)methoxy)-1-(4-(4-methylpiperazin-1-carbonyl)piperidin-1-yl)ethanone] | 97.3 | 99.6 | – | –
CN1CCC(N2CCN(C(=O)COCC3CCCCN3S(=O)(=O)c3ccc4c(c3)CCCC4)CC2)CC1 (stereo not shown) [Example 179, 1-(4-(1-methylpiperidin-4-yl)piperazin-1-yl)-2-((1-(5,6,7,8-tetrahydronaphthalen-2-ylsulfonyl)piperidin-2-yl)methoxy)ethanone dihydrochloride] | 104 | 100 | – | –
Cc1ccccc1Oc1cccc(S(=O)(=O)N2CCCCC2COCC(=O)N2CCN(C3CCN(C)CC3)CC2)c1 (stereo not shown) [Example 131, 1-(4-(1-methylpiperidin-4-yl)piperazin-1-yl)-2-((1-(3-(o-tolyloxy)phenylsulfonyl)piperidin-2-yl)methoxy)ethanone] | 82.1 | 95.4 | – | –
O=C(COCC1CCCCN1S(=O)(=O)c1ccc(Cl)c(Cl)c1)N1CCN(c2ccccc2)CC1 (stereo not shown) [Example 56, 2-[1-(3,4-dichloro-phenylsulfonyl)-piperidin-2-ylmethoxy]-1-(4-phenyl-piperazin-1-yl)-ethanone] | 62.7 | 0 | – | –
O=C(COCC1CCCCN1S(=O)(=O)c1ccc(Cl)c(Cl)c1)N1CCN(Cc2ccc3c(c2)OCO3)CC1 (stereo not shown) [Example 39, 1-(4-benzo[1,3]dioxol-5-ylmethyl-piperazin-1-yl)-2-[1-(3,4-dichloro-phenylsulfonyl)-piperidin-2-ylmethoxy]-ethanone] | 73.2 | 0 | – | –
CN(C(=O)COCC1CCCCN1S(=O)(=O)c1cccc2ccccc12)C(CN1CCOCC1)c1ccccc1 (stereo not shown) [Example 47, N-methyl-N-(2-morpholin-4-yl-1-phenyl-ethyl)-2-[1-(naphthyl-1-sulfonyl)-piperidin-2-ylmethoxy]-acetamide] | – | – | 68.07 | 48.84
COc1cc(C)c(S(=O)(=O)N2CCCCC2COCC(=O)N2CCC(NCC(c3cccnc3)N3CCOCC3)CC2)c(C)c1 (stereo not shown) [Example 136, 2-((1-(4-methoxy-2,6-dimethylphenylsulfonyl)piperidin-2-yl)methoxy)-1-(4-(2-morpholin-2-(pyridin-3-yl)ethylamino)piperidin-1-yl)ethanone] | – | – | 103.97 | 98.94

More lines, now with the values ahead:

inhibition at 10 µM (human B1R receptor) [%] | inhibition at 10 µM (B1R receptor of the rat) [%] | B1R Antagonism, human [10 μM] % Inhibition (human B1R receptor) [%] | B1R Antagonism, rat [10 μM] % Inhibition (B1R receptor of the rat) [%] | Compound
99.2 | 97.5 | – | – | COc1cc(C)c(S(=O)(=O)N2CCCCC2COCC(=O)NCC2CCCN(Cc3ccccc3)C2)c(C)c1 (stereo not shown) [Example 415, N-((1-benzylpiperidin-3-yl)methyl)-2-((1-(4-methoxy-2,6-dimethylphenylsulfonyl)piperidin-2-yl)methoxy)acetamide]
52.7 | 102 | – | – | O=C(COCC1CCCCN1S(=O)(=O)c1c(Cl)cccc1Cl)N1CCN(c2ncc(Cl)cc2Cl)CC1 (stereo not shown) [Example 551, 2-((1-(2,6-dichlorophenylsulfonyl)piperidin-2-yl)methoxy)-1-(4-(3,5-dichloropyridin-2-yl)piperazin-1-yl)ethanone]
104 | 92 | – | – | Cc1ccc(C)n1CCN1CCN(C(=O)COCC2CCCCN2S(=O)(=O)c2c(Cl)cccc2Cl)CC1 (stereo not shown) [Example 280, 2-((1-(2,6-dichlorophenylsulfonyl)piperidin-2-yl)methoxy)-1-(4-(2-(2,5-dimethyl-1H-pyrrol-1-yl)ethyl)piperazin-1-yl)ethanone]
103 | 100 | – | – | Cc1cccc(CC2CCCN2C(=O)COCC2CCCCN2S(=O)(=O)c2c(Cl)cccc2Cl)n1 (stereo not shown) [Example 458, 2-((1-(2,6-dichlorophenylsulfonyl)piperidin-2-yl)methoxy)-1-(2-((6-methylpyridin-2-yl)methyl)pyrrolidin-1-yl)ethanone]
92.3 | 102 | – | – | COc1cc(C)c(S(=O)(=O)N2CCCC2COCC(=O)N2CCN(c3ncc(C(F)(F)F)cc3Cl)CC2)c(C)c1 (stereo not shown) [Example 469, 1-(4-(3-chloro-5-(trifluoromethyl)pyridin-2-yl)piperazin-1-yl)-2-((1-(4-methoxy-2,6-dimethylphenylsulfonyl)pyrrolidin-2-yl)methoxy)ethanone]
106 | 102 | – | – | COc1cc(C)c(S(=O)(=O)N2CCCC2COCC(=O)N2CCN(CCc3ccccc3)CC2)c(C)c1 (stereo not shown) [Example 310, 2-((1-(4-methoxy-2,6-dimethylphenylsulfonyl)pyrrolidin-2-yl)methoxy)-1-(4-phenethylpiperazin-1-yl)ethanone]
95.5 | 101 | – | – | COc1cc(C)c(S(=O)(=O)N2CCCC2COCC(=O)N2CCN(c3cccc(Cl)c3)CC2)c(C)c1 (stereo not shown) [Example 346, 1-(4-(3-chlorophenyl)piperazin-1-yl)-2-((1-(4-methoxy-2,6-dimethylphenylsulfonyl)pyrrolidin-2-yl)methoxy)ethanone]
